Converted amounts (≈) assume the structure as drawn. “Also recorded” adds a separate entry of the source. Read-outs that look alike come from different tables or passages of the source. Marks after values point to notes of the source that are not given here.
Assays:
Dxr = settings: cited from earlier work
M. tuberculosis H37Rv = experiment: microbe, parasite or virus in culture; type: cell-based, Mycobacterium tuberculosis; settings: for MIC: Mycobacterium tuberculosis, H37RV, read-out: M. tuberculosis MIC
E. coli MG1655 = type: cell-based, Escherichia coli
Mtb Dxr = molecular target: T1, Mtb Dxr (Mycobacterium tuberculosis, UniProt P9WNS1); type: biochemical; settings: for IC50: read-out: Mtb Dxr IC50
T1 sequence (P9WNS1 1-413): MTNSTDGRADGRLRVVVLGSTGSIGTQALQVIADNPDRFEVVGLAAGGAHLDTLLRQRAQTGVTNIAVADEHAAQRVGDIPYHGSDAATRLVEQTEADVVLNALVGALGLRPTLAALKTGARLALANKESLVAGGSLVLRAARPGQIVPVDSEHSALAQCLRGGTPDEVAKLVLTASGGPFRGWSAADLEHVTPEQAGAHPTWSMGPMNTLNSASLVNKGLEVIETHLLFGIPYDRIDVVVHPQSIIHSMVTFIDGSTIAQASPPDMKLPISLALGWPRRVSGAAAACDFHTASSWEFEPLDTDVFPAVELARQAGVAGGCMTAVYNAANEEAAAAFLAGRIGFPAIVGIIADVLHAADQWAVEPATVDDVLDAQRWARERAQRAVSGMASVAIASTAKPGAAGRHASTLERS

Yp Dxr = Yp Dxr (Yersinia pestis, UniProt Q8ZH62); type: biochemical; settings: for IC50: read-out: Yp Dxr IC50
Yp Dxr, sequence (Q8ZH62 whole entry, looked up): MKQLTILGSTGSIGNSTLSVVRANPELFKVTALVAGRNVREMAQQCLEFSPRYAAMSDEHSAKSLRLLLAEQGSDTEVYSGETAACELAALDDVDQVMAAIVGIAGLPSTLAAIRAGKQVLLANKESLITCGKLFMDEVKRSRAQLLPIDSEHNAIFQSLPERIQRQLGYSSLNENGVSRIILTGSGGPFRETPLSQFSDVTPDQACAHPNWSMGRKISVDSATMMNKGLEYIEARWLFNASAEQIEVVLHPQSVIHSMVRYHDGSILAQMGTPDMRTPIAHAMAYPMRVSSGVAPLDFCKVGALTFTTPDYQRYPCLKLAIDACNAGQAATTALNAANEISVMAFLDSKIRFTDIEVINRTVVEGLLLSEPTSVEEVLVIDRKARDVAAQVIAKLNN

Yp = type: cell-based, Yersinia pestis

Row | Compound | M. tuberculosis MIC (M. tuberculosis H37Rv) | inhibition of Mtb Dxr (in words) (Mtb Dxr) | percent remaining enzyme activity at 100 µM (Mtb Dxr) (Mtb Dxr) | inhibition of Yp Dxr (in words) (Yp Dxr) | other results
1 | O=CN(O)CCCP(=O)(O)O [Compound 1, fosmidomycin, reference compound] |  |  |  |  | mechanism of inhibition (Dxr): competitive inhibitors with respect to DXP and uncompetitive relative to NADPH; MIC (M. tuberculosis H37Rv): > 500 mg/L
2 | CC(=O)N(O)CCCP(=O)(O)O [Compound 2, FR900098] | >500 µg/mL |  |  |  | growth inhibition activity (in words) (E. coli MG1655): potently inhibits bacterial propagation in a dose-dependent manner; IC50 (Mtb Dxr): 2.91 µM; mechanism of inhibition (Dxr): competitive inhibitors with respect to DXP and uncompetitive relative to NADPH; IC50 (Yp Dxr): 0.23 µM; growth inhibition activity (in words) (Yp): potently inhibits bacterial propagation in a dose-dependent manner
3 | CCCCC(=O)N(O)CCCP(=O)([O-])O.[Na+] [Compound 8a, Sodium hydrogen-3-(N-hydroxypentanamido)propyl phosphonate] |  | greatest inhibition |  |  | 
4 | CCCCCCC(=O)N(O)CCCP(=O)([O-])O.[Na+] [Compound 8b, Sodium hydrogen-3-(N-hydroxyheptanamido)propyl phosphonate] |  | inhibited; also recorded: greatest inhibition | (43) ^* percent | inhibited; also recorded: most active | percent remaining enzyme activity at 100 µM (Yp Dxr) (Yp Dxr): (27) percent
5 | O=C(CCC1CCCCC1)N(O)CCCP(=O)([O-])O.[Na+] [Compound 8d, Sodium hydrogen-3-(3-cyclohexyl-N-hydroxypropanamido)propyl phosphonate] | >200 (25) µg/mL |  |  |  | 
6 | O=C(c1ccccc1)N(O)CCCP(=O)([O-])O.[Na+] [Compound 8e, Sodium hydrogen-3-(N-hydroxybenzamido)propyl phosphonate] | ≥200 µg/mL |  | (70) percent | most active | inhibitor modality (Lineweaver-Burk) (Yp Dxr): competitive with both NADPH and DXP; selectivity between Dxr homologs (Yp versus Mtb) (Yp Dxr): significantly more potent against Yp Dxr; Ki (Yp Dxr; read-out: Ki relative to DXP): 7.9 µM; Ki (Yp Dxr; read-out: Ki with respect to NADPH): 1.8 µM; IC50 (Yp Dxr): 4.45 µM
7 | Cc1ccc(C(=O)N(O)CCCP(=O)([O-])O)cc1.[Na+] [Compound 8f, Sodium hydrogen-3-(N-hydroxy-4-methylbenzamido)propyl phosphonate] |  |  | (74) percent | most active | selectivity between Dxr homologs (Yp versus Mtb) (Yp Dxr): significantly more potent against Yp Dxr; IC50 (Yp Dxr): 16 µM
8 | O=C(CCCc1ccccc1)N(O)CCCP(=O)([O-])O.[Na+] [Compound 8h, Sodium hydrogen-3-(N-hydroxy-4-phenylbutanamido)propyl phosphonate] | >200 µg/mL | greatest inhibition |  | most active | IC50 (Mtb Dxr): 17.8 µM; binding modality (Dxr): competitively with DXP but noncompetitively with NADPH; percent remaining enzyme activity at 100 µM (Yp Dxr) (Yp Dxr): (34) percent
9 | O=C(COc1ccc(Cl)cc1)N(O)CCCP(=O)([O-])O.[Na+] [Compound 8l, Sodium hydrogen-3-(2-(4-chlorophenoxy)-N-hydroxyacetamido)propyl phosphonate] | >200 (25) µg/mL |  |  |  | 
10 | O=C(N(O)CCCP(=O)([O-])O)N(c1ccccc1)c1ccccc1.[Na+] [Compound 8n, Sodium hydrogen-3-(1-hydroxy-3,3-diphenylureido)propyl phosphonate] |  | ineffective |  | ineffective | 
11 | CC(=O)N(CCCP(=O)([O-])O)OCc1ccc(C(C)C)cc1.[Na+] [Compound 16d, Sodium Hydrogen 3-(N-((4-isopropylbenzyl)oxy)acetamido)propyl phosphonate] | 200 (25) µg/mL | potent inhibitors; also recorded: greatest inhibition |  | potent inhibitors; also recorded: most active | IC50 (Mtb Dxr): 48.4 µM; selectivity between Dxr homologs (Yp versus Mtb) (Yp Dxr): more potent against Yp Dxr; IC50 (Yp Dxr): 1.19 µM
12 | CC(=O)N(CCCP(=O)([O-])O)OC(C)c1ccccc1.[Na+] (stereo not shown) [Compound 16e, Sodium Hydrogen 3-(N-(1-phenylethoxy)acetamido)propyl phosphonate] |  | greatest inhibition | (38.1) percent | most active | percent remaining enzyme activity at 100 µM (Yp Dxr) (Yp Dxr): (19) percent
13 | CC(=O)N(CCCP(=O)([O-])O)OCCc1ccc(O)cc1.[Na+] [Compound 16g, Sodium Hydrogen 3-(N-(4-hydroxyphenethoxy)acetamido)propyl phosphonate] |  |  | (59) percent | most active | percent remaining enzyme activity at 100 µM (Yp Dxr) (Yp Dxr): (22) percent; selectivity between Dxr homologs (Yp versus Mtb) (Yp Dxr): same trend
14 | CC(=O)N(CCCP(=O)([O-])O)OCCCCc1ccccc1.[Na+] [Compound 16h, Sodium Hydrogen 3-(N-(4-phenylbutoxy)acetamido)propyl phosphonate] | ≥200 µg/mL |  |  |  | 
15 | CC(=O)N(CCCP(=O)([O-])O)OCc1cccc2ccccc12.[Na+] [Compound 16i, Sodium Hydrogen 3-(N-(naphthalen-1-ylmethoxy)acetamido)propyl phosphonate] |  | greatest inhibition | (29) percent | most active | selectivity between Dxr homologs (Yp versus Mtb) (Yp Dxr): more potent against Yp Dxr; IC50 (Yp Dxr): 22.4 µM
16 | CC(=O)N(CCCP(=O)([O-])O)OCc1ccc2ccccc2c1.[Na+] [Compound 16j, Sodium Hydrogen 3-(N-(naphthalen-2-ylmethoxy)acetamido)propyl phosphonate] | ≥200 µg/mL | potent inhibitors; also recorded: greatest inhibition |  | potent inhibitors; also recorded: most active | inhibitor modality (Lineweaver-Burk) (Mtb Dxr): competitive with both NADPH and DXP; Ki (Mtb Dxr; read-out: Ki relative to NADPH): 17.8 µM; Ki (Mtb Dxr; read-out: Ki with respect to DXP): 1 µM; IC50 (Mtb Dxr): 1.45 µM; IC50 (Yp Dxr): 0.33 µM
17 | CC(=O)N(CCCP(=O)([O-])O)OCc1ccc(-c2ccccc2)cc1.[Na+] [Compound 16k, Sodium Hydrogen 3-(N-([1,1'-biphenyl]-4-ylmethoxy)acetamido)propyl phosphonate] | 25 to 50 µg/mL | potent inhibitors; also recorded: greatest inhibition | (36.8) percent | potent inhibitors; also recorded: most active | selectivity between Dxr homologs (Yp versus Mtb) (Yp Dxr): more potent against Yp Dxr; IC50 (Yp Dxr): 8.4 µM
18 | CC(=O)N(CCCP(=O)([O-])O)OCc1ccc(-c2ccc(C(C)C)cc2)cc1.[Na+] [Compound 16p, Sodium Hydrogen 3-(N-((4'-isopropyl-[1,1'-biphenyl]-4-yl)methoxy)acetamido)propyl phosphonate] | 100 (6.25–12.5) µg/mL |  |  |  | 
19 | CC(=O)N(CCCP(=O)([O-])O)OCc1ccc(-c2ccc(C(F)(F)F)cc2)cc1.[Na+] [Compound 16r, Sodium Hydrogen 3-(N-((4'-(trifluoromethyl)-[1,1'-biphenyl]-4-yl)methoxy)acetamido)propyl phosphonate] |  |  | (70) percent | most active | percent remaining enzyme activity at 100 µM (Yp Dxr) (Yp Dxr): (19) percent
20 | CC(=O)N(CCCP(=O)(OCOC(=O)C(C)(C)C)OCOC(=O)C(C)(C)C)OCc1ccc(C(C)C)cc1 [Compound 17, [({[(2,2-dimethylpropanoyl)oxy]methoxy}[3-(N-{[4-(propan-2-yl)phenyl]methoxy}acetamido)propyl]phosphoryl)oxy]methyl 2,2-dimethyl propanoate] | 12.5 (6.25–12.5) µg/mL |  |  |  | 
21 | CC(=O)N(CCCP(=O)(OCOC(=O)C(C)(C)C)OCOC(=O)C(C)(C)C)OCCCCc1ccccc1 [Compound 18, [({[(2,2-dimethylpropanoyl)oxy]methoxy}({3-[N-(4-phenylbutoxy)acetamido]propyl})phosphoryl)oxy]methyl 2,2-dimethylpropanoate] |  |  |  |  | MIC (M. tuberculosis H37Rv): 12.5 mg/L (≈ 22.4 µM)
22 | CC(=O)N(CCCP(=O)(OCOC(=O)C(C)(C)C)OCOC(=O)C(C)(C)C)OCc1ccc(-c2ccccc2)cc1 [Compound 19, [({[(2,2-dimethylpropanoyl)oxy]methoxy}(3-{N-[(4-phenylphenyl)methoxy]acetamido}propyl)phosphoryl)oxy]methyl 2,2-dimethyl propanoate] | 12.5 (3.13–6.25) µg/mL |  |  |  | 
23 | CC(=O)N(CCCP(=O)(OCOC(=O)C(C)(C)C)OCOC(=O)C(C)(C)C)OCc1ccc2ccccc2c1 [Compound 20, [({[(2,2-dimethylpropanoyl)oxy]methoxy}({3-[N-(naphthalen-2-ylmethoxy)acetamido]propyl})phosphoryl)oxy]methyl 2,2-dimethylpropanoate] | 18.75 (4.7) µg/mL |  |  |  | 
24 | CC(=O)N(CCCP(=O)(OCOC(=O)c1ccccc1)OCOC(=O)c1ccccc1)OCCCCc1ccccc1 [Compound 21, [({[(benzoyl)oxy]methoxy}({3-[N-(4-phenylbutoxy)acetamido]propyl})phosphoryl)oxy]methyl benzoate] |  |  |  |  | MIC (M. tuberculosis H37Rv): 25 mg/L (≈ 41.8 µM)
25 | NNC(=O)c1ccncc1 [INH, reference compound] | 0.01 µg/mL |  |  |  | 

— PMC5266543 (ACS infectious diseases, 2016)
